Results published in the CheMixHub ionic liquid set.
± gives the uncertainty stated by the source.

Assay: xn = mol fraction of the nth substance listed

CC[N+](CC)(CC)CC.F[B-](F)(F)F + CC1COC(=O)O1
101 kPa
Settings | viscosity [mPa·s]
283.15 K, x1 = 0.001044 | 3.574 ± 0.052
283.15 K, x1 = 0.001302 | 3.581 ± 0.052
283.15 K, x1 = 0.001888 | 3.591 ± 0.052
283.15 K, x1 = 0.003069 | 3.625 ± 0.052
283.15 K, x1 = 0.003925 | 3.642 ± 0.053
283.15 K, x1 = 0.005619 | 3.663 ± 0.053
283.15 K, x1 = 0.007445 | 3.702 ± 0.054
283.15 K, x1 = 0.009039 | 3.739 ± 0.054
283.15 K, x1 = 0.01054 | 3.769 ± 0.054
283.15 K, x1 = 0.01391 | 3.835 ± 0.055
283.15 K, x2 = 0.9206 | 5.439 ± 0.076
283.15 K, x2 = 0.9274 | 5.243 ± 0.074
283.15 K, x2 = 0.9419 | 4.842 ± 0.069
283.15 K, x2 = 0.9434 | 4.813 ± 0.069
283.15 K, x2 = 0.9551 | 4.515 ± 0.065
283.15 K, x2 = 0.9624 | 4.356 ± 0.062
283.15 K, x2 = 0.9701 | 4.177 ± 0.06
298.15 K, x1 = 0.001682 | 2.557 ± 0.038
298.15 K, x1 = 0.003455 | 2.58 ± 0.038
298.15 K, x1 = 0.004813 | 2.598 ± 0.038
298.15 K, x1 = 0.006017 | 2.613 ± 0.039
298.15 K, x1 = 0.007139 | 2.628 ± 0.039
298.15 K, x1 = 0.008167 | 2.641 ± 0.039
298.15 K, x1 = 0.009079 | 2.657 ± 0.039
298.15 K, x1 = 0.01102 | 2.68 ± 0.04
298.15 K, x1 = 0.01252 | 2.701 ± 0.04
298.15 K, x1 = 0.01813 | 2.774 ± 0.041
298.15 K, x2 = 0.9206 | 3.716 ± 0.054
298.15 K, x2 = 0.9283 | 3.58 ± 0.052
298.15 K, x2 = 0.9528 | 3.189 ± 0.047
298.15 K, x2 = 0.971 | 2.924 ± 0.043
308.15 K, x1 = 0.001119 | 2.101 ± 0.032
308.15 K, x1 = 0.003553 | 2.127 ± 0.032
308.15 K, x1 = 0.005754 | 2.15 ± 0.032
308.15 K, x1 = 0.006805 | 2.161 ± 0.032
308.15 K, x1 = 0.007615 | 2.17 ± 0.032
308.15 K, x1 = 0.008953 | 2.182 ± 0.033
308.15 K, x1 = 0.01146 | 2.209 ± 0.033
308.15 K, x1 = 0.01324 | 2.228 ± 0.033
308.15 K, x2 = 0.9174 | 3.043 ± 0.045
308.15 K, x2 = 0.9215 | 2.977 ± 0.044
308.15 K, x2 = 0.9382 | 2.775 ± 0.041
308.15 K, x2 = 0.9417 | 2.728 ± 0.04
308.15 K, x2 = 0.9539 | 2.586 ± 0.038
308.15 K, x2 = 0.9711 | 2.396 ± 0.036
308.15 K, x2 = 0.9798 | 2.303 ± 0.034
313.15 K, x1 = 0.00395 | 1.953 ± 0.029
313.15 K, x1 = 0.004693 | 1.963 ± 0.03
313.15 K, x1 = 0.005951 | 1.972 ± 0.03
313.15 K, x1 = 0.00774 | 1.988 ± 0.03
313.15 K, x1 = 0.009433 | 2.003 ± 0.03
313.15 K, x1 = 0.01082 | 2.018 ± 0.03
313.15 K, x2 = 0.9272 | 2.638 ± 0.039
313.15 K, x2 = 0.9371 | 2.531 ± 0.037
313.15 K, x2 = 0.9469 | 2.429 ± 0.036
313.15 K, x2 = 0.9574 | 2.325 ± 0.035
313.15 K, x2 = 0.9712 | 2.185 ± 0.033
313.15 K, x2 = 0.9797 | 2.106 ± 0.032

CC#N + CCCC[P+](CC)(CCCC)CCCC.F[B-](F)(F)F
100 kPa, x2 = 0
Settings | viscosity [mPa·s]
293.15 K | 0.354 ± 0.021
298.15 K | 0.338 ± 0.02
303.15 K | 0.324 ± 0.02
308.15 K | 0.31 ± 0.019
313.15 K | 0.298 ± 0.018
318.15 K | 0.286 ± 0.017

CC(O)C(=O)[O-].CCOCCn1cc[n+](C)c1 + O
100 kPa
Settings | electrical conductivity [S/m] | viscosity [mPa·s]
293.15 K, x1 = 0.8093 | 0.292 ± 0.02 | 70.03 ± 0.95
293.15 K, x1 = 0.8365 | 0.261 ± 0.02 | 74.7 ± 1.1
293.15 K, x1 = 0.9017 | 0.2 ± 0.02 | 85.7 ± 1.7
298.15 K, x1 = 0.8702 | 0.276 ± 0.02 | 60.47 ± 0.58
303.15 K, x1 = 0.938 | 0.274 ± 0.02 | 52.44 ± 0.39
308.15 K, x1 = 0.8093 | 0.498 ± 0.02 | 31.76 ± 0.35
308.15 K, x1 = 0.8365 | 0.464 ± 0.02 | 33.56 ± 0.38
308.15 K, x1 = 0.8702 | 0.43 ± 0.02 | 35.75 ± 0.4
318.15 K, x1 = 0.9017 | 0.617 ± 0.02 | 22.56 ± 0.3

CC(CC(C)(C)C)CP(=O)([O-])CC(C)CC(C)(C)C.CCCCCCCCCCCCCC[P+](CCCCCC)(CCCCCC)CCCCCC + CCCCCCCCCCCC
101 kPa
Settings | viscosity [mPa·s]
298.15 K, x1 = 0.4684 | 82 ± 2.7
303.15 K, x1 = 1 | 757 ± 46
308.15 K, x1 = 0.4684 | 56.3 ± 1.7
318.15 K, x1 = 0.6647 | 103 ± 4
338.15 K, x1 = 0.6647 | 50.4 ± 1.6
343.15 K, x1 = 0.6647 | 43.4 ± 1.4
343.15 K, x1 = 1 | 111 ± 4

CC#N + CC[n+]1ccn(C)c1C.F[B-](F)(F)F
101.3 kPa, x2 = 0
Settings | viscosity [mPa·s]
293.15 K | 0.361 ± 0.034
298.15 K | 0.346 ± 0.033
303.15 K | 0.332 ± 0.031
308.15 K | 0.32 ± 0.03
313.15 K | 0.309 ± 0.029
318.15 K | 0.298 ± 0.028
323.15 K | 0.288 ± 0.027
328.15 K | 0.279 ± 0.026
333.15 K | 0.271 ± 0.026
